System: FRT CFTR-F508del YFP iodide quenching, 24 h
Assay: restoration of mutant CFTR halide transport – FRT cells, YFP quenching, cherry-pick, dose response (AID 743402);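 note: compounds act as correctors raising surface CFTR-F508del before acute activation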
Settings: not given

`C=C1C(=O)O[C@@H]2C[C@@H](C)[C@@H]3C=CC(=O)[C@@]3(C)[C@@H](O)[C@H]12` and `Nc1ccc2ccc3cccc[n+]3c2c1` are within 1.5-fold of each other in AC35: 5.32 µM for the first, 7.53 µM for the second.

Same assay, conditions: channel opened with forskolin and a potentiator

First: CCOC1=C/C(=C/c2c(N)n3nc(S(=O)(=O)CC)sc3nc2=O)C=CC1=O
Second: CCN(CC)CCCNc1ccc2ncn3c4ccc(O)cc4c(=O)c1c23
The AC35 of the first is 2.5-fold higher: 9.92 µM for the first, 4.01 µM for the second.

`COc1cccc(S(=O)(=O)N2C[C@@H]3N[C@H](C2)C3c2ccc(-c3cccc(C)c3)cc2)c1` (some centres undefined) and `N#Cc1ccc(-c2ccc(C3[C@@H]4CN(C(=O)C5CCC5)C[C@H]3N4)cc2)cc1` (some centres undefined) are within 1.5-fold of each other in AC35: 21 µM for the first, 22.1 µM for the second.

`CN1/C(=C\C=C2/SC(=S)N(CC(=O)O)C2=O)C(C)(C)c2ccccc21` and `CCCCN1C(=O)/C(=C/C=C2\Oc3ccccc3N2CC)SC1=S` are within 1.5-fold of each other in AC35: 1.37 µM for the first, 1.64 µM for the second.

Compared with `O=C1c2cccc(NCCCNCCO)c2C(=O)c2cccc(NCCCNCCO)c21`, `O=c1c2ccccc2sc2c(CO)ccc(NCCN3CCCCC3)c12` is 4.2-fold higher in AC35: 5.19 µM for the first, 21.8 µM for the second.

`CC(=O)Nc1sc2c(c1-c1nc3ccccc3s1)CN(C(C)C)CC2` and `CN(C)CCNC(=O)c1ccc(Cl)c2cc3ccccc3nc12` are within 1.5-fold of each other in AC35: 10.7 µM for the first, 9.45 µM for the second.

First: Cc1cc(Nc2ccc(Br)cc2)nc2ccccc12
Second: Clc1ccc(Nc2ccc3ccccc3n2)cc1
The AC35 of the first is 1.9-fold higher: 8.45 µM for the first, 4.5 µM for the second.

Going from `O=c1ccc2c(-c3ccccc3)c3ccc(O)cc3oc-2c1` to `Nc1ccc2c3c(cccc13)C(=O)N(c1ccccc1)C2=O`, the AC35 rises from 1.11 µM to 1.93 µM (1.7-fold).

`O=C(Nc1cccc(F)c1)N1CCCCN2[C@@H](CO)[C@H](c3ccc(C#CC4CC4)cc3)[C@@H]2C1` and `CCCC#Cc1ccc([C@H]2[C@@H](CO)N3CCCCN(S(=O)(=O)c4ccccc4C)C[C@H]23)cc1` are within 1.5-fold of each other in AC35: 20.8 µM for the first, 19 µM for the second.

`O=C(C1CC1)N1CC(=O)N2[C@H](CO)[C@@H](c3ccc(-c4ccccc4F)cc3)[C@@H]2C1` and `O=C(Cc1ccccc1)N1CC(=O)N2[C@H](C1)[C@@H](c1ccc(C#Cc3ccccc3)cc1)[C@@H]2CO` are within 1.5-fold of each other in AC35: 19.7 µM for the first, 21.3 µM for the second.

`Cc1ccc(N2C(=O)c3cccc4c([N+](=O)[O-])ccc(c34)C2=O)c2cccnc12` and `O=[N+]([O-])c1ccc(Sc2cccc[n+]2[O-])c2nonc12` are within 1.5-fold of each other in AC35: 4.81 µM for the first, 4.93 µM for the second.

Going from `C#C[C@]1(O)CC[C@H]2[C@@H]3CCc4cc(OC5CCCC5)ccc4[C@H]3CC[C@@]21C` to `COc1cccc2c1C(=O)c1c(O)c3c(c(O)c1C2=O)C[C@@](O)(C(C)=O)C[C@@H]3O[C@H]1C[C@H](N)[C@H](O)[C@H](C)O1`, the AC35 falls from 25.1 µM to 0.856 µM (29-fold).

`COc1cc(OC)c(-c2c3cc(O)c(=O)cc-3oc3cc(O)c(O)cc23)cc1OC` and `CC(=O)Nc1ccc2cc3ccc(NC(C)=O)cc3nc2c1` are within 1.5-fold of each other in AC35: 4.15 µM for the first, 3.98 µM for the second.

Compared with `O=S(=O)(c1ccc(F)cc1)N1CC[C@@H]2[C@@H](CO)Nc3ccc(-c4ccc(F)cc4)cc3[C@@H]21`, `CN(C)CCCNc1c2ccccc2nc2ccccc12` is 5-fold lower in AC35: 17.7 µM for the first, 3.57 µM for the second.

Work on `CCCOc1cc(N(CC)CC)ccc1/C=C(/C#N)c1nc2ccc(C)cc2[nH]1` yielded an AC35 of 0.505 µM.

From PubChem BioAssay AID743402 (Broad Institute, 2014)
